Measurements taken from patent US20140336216A1, “PHYSIOLOGICAL LIGANDS FOR GPR139” (Janssen Pharmaceutica NV, priority 2013, published 2014).
Several values for one entry are separate records, joined by “and”; a condition that tells them apart may be missing. Identical values can stand only once.

Legend:
GPR139 [1] = target: T1, GPR139 (Homo sapiens, UniProt Q6DWJ6); test: Calcium mobilization assay (FLIPR), GPR139 expressed in HEK293 cells; type: cell-based; design: expressed in transfected cells; host or cells: HEK293 (transient); conditions: similar to GTPγS binding studies
T1 sequence (Q6DWJ6 1-353): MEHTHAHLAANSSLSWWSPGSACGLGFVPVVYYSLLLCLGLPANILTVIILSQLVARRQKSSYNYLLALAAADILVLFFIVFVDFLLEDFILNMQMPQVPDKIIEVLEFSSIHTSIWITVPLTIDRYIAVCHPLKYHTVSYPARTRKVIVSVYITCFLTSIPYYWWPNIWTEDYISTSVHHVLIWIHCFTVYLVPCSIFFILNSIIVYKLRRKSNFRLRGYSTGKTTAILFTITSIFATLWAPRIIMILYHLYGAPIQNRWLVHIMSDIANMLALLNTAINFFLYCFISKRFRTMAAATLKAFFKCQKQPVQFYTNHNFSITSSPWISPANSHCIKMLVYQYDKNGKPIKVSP
Description: FIG. 3A and FIG. 3B: Provides the results of experiments conducted to determine whether Trp and its derivatives (FIG. 3A) and Phe and its derivatives (FIG. 3B) stimulate Ca^2+ mobilization in HEK293 cells expressing GPR139.
The active compounds were also tested in a calcium mobilization assay (FLIPR® assay). For these experiments human GPR139 was transiently expressed in HEK293 cells and calcium mobilization was stimulated using L-Trp, L-Phe or their derivatives. […] The concentrations of L-Trp and L-Phe in many cell culture media (for instance DMEM is about 80 μM and 750 μM respectively) are close to the EC50 values of L-Trp and L-Phe for GPR139. […] This may explain why GPR139 appeared constitutively active when recombinantly expressed in mammalian cells.
About 300 additional phenylalanine analogues have been tested for GPR139 activation using a calcium mobilization (FLIPR®) assay. The results of these experiments indicate that many of these analogues can also activate GPR139. Table 4 lists certain phenylalanine analogues that have been determined to activate GPR139 by calcium mobilization at a concentration of 300 μM (calcium mobilization is expressed as percentage of that observed for L-phenylalanine).

mouse GPR139 = target: T2, mouse GPR139 (Mus musculus, UniProt Q80UC8); test: GTPγS binding dose response study, mouse GPR139 co-transfected with GO2Q into COS7 cells; type: biochemical; conditions: mouse GPR139, FIG. 2C and 2D
T2 construct: expressed in transfected cells; host or cells: COS7 (membranes)
T2 sequence (Q80UC8 1-345): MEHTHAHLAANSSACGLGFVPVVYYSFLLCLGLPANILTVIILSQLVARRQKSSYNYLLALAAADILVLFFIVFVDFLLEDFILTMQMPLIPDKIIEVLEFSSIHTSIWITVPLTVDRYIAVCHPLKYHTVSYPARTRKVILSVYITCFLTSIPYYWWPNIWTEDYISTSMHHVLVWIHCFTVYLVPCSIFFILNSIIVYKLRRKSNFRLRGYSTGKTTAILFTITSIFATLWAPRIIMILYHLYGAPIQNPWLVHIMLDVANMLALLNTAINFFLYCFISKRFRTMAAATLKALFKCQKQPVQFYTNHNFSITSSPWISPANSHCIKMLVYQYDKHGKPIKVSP
Excerpt: (§1) FIG. 2-FIG. 2F: Tryptophan, phenylalanine, and their derivatives activate GPR139. Human (FIG. 2A and FIG. 2B) or mouse (FIG. 2C and FIG. 2D) GPR139 were co-transfected with chimeric G-protein GO2Q into COS7 cells. Cell membranes from transfected cells were used in GTPγS binding studies using various ligands at different concentrations to stimulate GPR139. FIG. 2E and FIG. 2F show control experiments in the dose response studies of Example 1.

GPR139 [2] = target: T1, GPR139; test: GTPγS binding dose response study, human GPR139 co-transfected with GO2Q into COS7 cells; type: biochemical; design: expressed in transfected cells; host or cells: COS7 (membranes); conditions: human GPR139, FIG. 2A and 2B
Excerpt: as §1

GO2Q alone = test: GTPγS binding assay, control COS7 membranes expressing GO2Q alone (Ct-GO2Q); type: biochemical; conditions: 1 mM final concentration; COS7 membranes expressing GO2Q alone; single wells of triplicate
Description: (§2) In order identify the ligands for GPR139 two improvements in the detection assay were made to allow for the ligands to be detected. First, we chose to use a GTPγS binding assay instead of using live cultured cells. The GTPγS binding assay is a cell free system that uses the cell membrane of the cell(s) of interest rather than the live cell(s). One advantage of this assay is that potential ligands present in the cell culture media are washed away when the cell membrane is prepared. This reduces the basal level of signal and increase the chance of detecting receptor ligands when assessing compounds that activate the receptor. Second, a GO2Q chimeric G-protein was created to be co-expressed with GPR139 in order to increase the signal-to-noise ratio in the GTPγS binding assay. Historically, the Gi, Go coupled GPCRs offer much greater signal-to-noise ratio in GTPγS binding studies. For Gs and Gq coupled GPCRs, although ligand-stimulated specific signals can be detected in a GTPγS binding assay, the signal-to-noise ratios are often very small. To address this a chimeric GO2-Gq chimeric G-protein, GO2Q, with the N-terminus from Go2 protein and the C-terminus from Gq protein.
(§3) To test for compounds that activate GPR139, different amino acids and their derivatives (Table 2) were tested as ligands in the GTPγS binding assay using cell membranes from COS7 cells co-expressing GPR139 and GO2Q. Cell membrane from COS7 cells expressing GO2Q alone or co-expressing other GPCRs were also tested in GTPγS binding assay in parallel as controls. Each compound was tested in triplicate.

GPR139 [3] = target: T1, GPR139; test: GTPγS binding assay, single-concentration screen, COS7 membranes co-expressing GPR139 and GO2Q; type: biochemical; design: expressed in transfected cells; host or cells: COS7 (membranes); conditions: for Activation of GPR139 in the GTPγS binding assay: 1 mM; for Activation levels of GPR139 (GTPγS binding), GPR139-GO2Q: 1 mM final concentration, COS7 membranes co-expressing GPR139 and GO2Q, single wells of triplicate
Description: as §2, §3

| Structure (SMILES) | Potency in calcium mobilization relative to L-Trp and L-Phe (GPR139 [1]) | Dose-responsive activation of GPR139 (GTPγS binding) (mouse GPR139) | Dose-responsive activation of GPR139 (GTPγS binding) (GPR139 [2]) | Activation levels (GTPγS binding), Ct-GO2Q (GO2Q alone) | Activation of GPR139 in the GTPγS binding assay (GPR139 [3]) | Activation levels of GPR139 (GTPγS binding), GPR139-GO2Q (GPR139 [3]) |
| --- | --- | --- | --- | --- | --- | --- |
| Cn1cc(C[C@@H](N)C(=O)O)c2ccccc21 [1-methy-D-Try, 1-methyl-D-Trp] | higher potencies | specifically activate GPR139 in a dose-responsive manner | specifically activate GPR139 in a dose-responsive manner | – | – | – |
| Cn1cc(C[C@H](N)C(=O)O)c2ccccc21 [1-methy-L-Trp, 1-methyl-L-Trp] | higher potencies | specifically activate GPR139 in a dose-responsive manner | specifically activate GPR139 in a dose-responsive manner | – | – | – |
| CC(N)Cc1ccccc1 (centres unmarked) [Amphetamine] | – | specifically activate GPR139 in a dose-responsive manner | specifically activate GPR139 in a dose-responsive manner | 2331 and 2132 and 2001 | activated GPR139 | 7242 and 6744 and 7263 |
| N[C@@H](CSSC[C@H](N)C(=O)O)C(=O)O [Cystine] | – | – | – | 2242 and 2149 and 2229 | – | 2501 and 2652 and 2258 |
| N[C@H](Cc1ccccc1)C(=O)O [D-Phe, D-phenylalanine] | – | specifically activate GPR139 in a dose-responsive manner | specifically activate GPR139 in a dose-responsive manner | – | – | – |
| N[C@H](Cc1c[nH]c2ccccc12)C(=O)O [D-Trp, D-tryptophan] | – | specifically activate GPR139 in a dose-responsive manner | specifically activate GPR139 in a dose-responsive manner | – | – | – |
| NCCc1ccc(O)c(O)c1 [DA] | – | – | – | 2250 and 2213 and 2319 | – | 2688 and 2825 and 2708 |
| NC(=O)CC[C@H](N)C(=O)O [Gln] | – | – | – | 2181 and 2327 and 2336 | – | 2583 and 2525 and 2766 |
| N[C@@H](CCC(=O)O)C(=O)O [Glu] | – | – | – | 2242 and 2310 and 2311 | – | 2847 and 2837 and 2841 |
| NCC(=O)O [Gly] | – | – | – | 1936 and 2133 and 2289 | – | 2560 and 2505 and 2414 |
| NCCc1c[nH]cn1 [HA, histamine] | – | – | – | 2186 and 2204 and 2199 | – | 2737 and 2863 and 2899 |
| O=C(O)[C@@H]1C[C@@H](O)CN1 [HO-Pro] | – | – | – | 2166 and 2152 and 2189 | – | 2825 and 2797 and 3109 |
| N[C@@H](Cc1c[nH]cn1)C(=O)O [His] | – | – | – | 2308 and 2259 and 2197 | – | 2640 and 2499 |
| CC[C@H](C)[C@H](N)C(=O)O [Ile] | – | – | – | 2266 and 2222 and 2253 | – | 2760 and 2542 and 2903 |
| CC(C)C[C@H](N)C(=O)O [Leu] | – | – | – | 2194 and 2213 and 2167 | – | 2621 and 2544 and 2437 |
| NCCCC[C@H](N)C(=O)O [Lys] | – | – | – | 2400 and 2138 and 2041 | – | 2433 and 2617 and 2589 |
| CSCC[C@H](N)C(=O)O [Met] | – | – | – | 2173 and 2307 and 2276 | – | 2657 and 2829 and 2802 |
| NCC(O)c1ccc(O)cc1 (centres unmarked) [Octopamine] | – | – | – | 2087 and 2140 and 2142 | – | 2554 and 2675 and 2831 |
| O=C(O)[C@@H]1CCCN1 [Pro] | – | – | – | 2256 and 2235 and 2329 | – | 2719 and 2657 and 2786 |
| N[C@@H](CO)C(=O)O [Ser] | – | – | – | 1975 and 2036 and 2164 | – | 2605 and 2458 and 2545 |
| NCCc1c[nH]c2ccc(O)cc12 [Seretonin] | – | – | – | 2356 and 2154 and 2332 | – | 2839 and 2852 and 2920 |
| C[C@@H](O)[C@H](N)C(=O)O [Thr] | – | – | – | 2210 and 2213 and 2008 | – | 2547 and 2507 and 2558 |
| NCCc1c[nH]c2ccccc12 [Tryptamine] | – | specifically activate GPR139 in a dose-responsive manner | specifically activate GPR139 in a dose-responsive manner | 2025 and 2048 and 2088 | activated GPR139 | 6757 and 7686 and 7742 |
| N[C@@H](Cc1ccc(O)cc1)C(=O)O [Tyr] | – | – | – | 2192 and 2191 and 2186 | – | 2752 and 2715 and 2921 |
| NCCc1ccc(O)cc1 [Tyramine] | – | – | – | 2132 and 2277 and 2369 | – | 2883 and 2932 and 2873 |
| CC(C)[C@H](N)C(=O)O [Val] | – | – | – | 2072 and 2083 and 1977 | – | 2632 and 2689 and 2533 |
| NCCc1ccccc1 [b-phenylethylamine, β-phenylethylamine] | – | specifically activate GPR139 in a dose-responsive manner | specifically activate GPR139 in a dose-responsive manner | 2334 and 2065 and 2024 | activated GPR139 | 6705 and 7099 and 6634 |
